# Data published in ChEMBL document CHEMBL4052676, “Anti-diabetic xanthones from the bark of Garcinia xanthochymus” (Bioorg Med Chem Lett, 2017).
# Key:
# [1] = Inhibition of Saccharomyces cerevisiae alpha-glucosidase pre-incubated for 10 mins before p-nitrophenyl […]-D-glucopyranoside substrate addition and measured every 30 secs for 35 mins post substrate addition
# [2] = target: T1, Tyrosine-protein phosphatase non-receptor type 1 (Homo sapiens, UniProt P18031); experiment: Inhibition of human recombinant PTP1B pre-incubated for 10 mins before pnitrophenyl phosphate substrate addition and measured every 30 secs for 10 mins
# T1 sequence (P18031 whole entry): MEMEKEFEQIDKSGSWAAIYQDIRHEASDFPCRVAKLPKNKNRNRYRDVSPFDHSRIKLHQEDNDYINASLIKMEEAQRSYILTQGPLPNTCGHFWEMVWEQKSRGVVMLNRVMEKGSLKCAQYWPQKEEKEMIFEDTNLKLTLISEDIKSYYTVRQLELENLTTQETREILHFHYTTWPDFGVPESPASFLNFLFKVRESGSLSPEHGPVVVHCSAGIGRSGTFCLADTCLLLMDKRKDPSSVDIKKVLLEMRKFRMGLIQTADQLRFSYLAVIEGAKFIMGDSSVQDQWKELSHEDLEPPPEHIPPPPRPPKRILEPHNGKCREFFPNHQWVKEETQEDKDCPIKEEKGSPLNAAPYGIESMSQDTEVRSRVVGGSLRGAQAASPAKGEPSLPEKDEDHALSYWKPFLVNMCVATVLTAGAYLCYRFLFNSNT
Compound,IC50 ([1]; read-out: IC50) [µM],IC50 [2],IC50 [1],IC50 ([2]; read-out: IC50) [µM]
C=CC(C)(C)c1cc(O)c2oc3c(O)cccc3c(=O)c2c1O,85.5,Not Active,,
C=CC(C)(C)c1cc(O)c(O)c2c(=O)c3ccc(O)c(O)c3oc12,27.5,,,85.5
C=CC(C)(C)c1cc(O)c(O)c2c(=O)c3cccc(O)c3oc12,29.8,,,73.2
C=CC(C)(C)c1cc(O)c(O)c2c(=O)c3cc4c(c(O)c3oc12)OC(C)(C)C=C4,,,Not Active,49.4
O=c1c2cc(O)ccc2oc2ccc(O)c(O)c12,31.4,,,120
C=CC(C)(C)c1cc(O)c(O)c2c(=O)c3cc4ccoc4c(O)c3oc12,134,,,45.2
COc1c(O)cc2oc3cc4occc4c(O)c3c(=O)c2c1C/C=C(\C)CCC=C(C)C,94.2,,,55.1
O=c1c2cccc(O)c2oc2c(O)ccc(O)c12,358,,,148

# Next, values leading:
IC50 ([1]; read-out: IC50) [µM],IC50 [2],IC50 [1],IC50 ([2]; read-out: IC50) [µM],Compound
900,,,,C[C@H]1O[C@H](O[C@H]2[C@H](O)[C@@H](O)[C@@H](O[C@H]3[C@H](O)[C@@H](O)C(O)O[C@@H]3CO)O[C@@H]2CO)[C@H](O)[C@@H](O)[C@@H]1N[C@H]1C=C(CO)[C@@H](O)[C@H](O)[C@H]1O (stereo not given in full) [ACARBOSE]
,,Not Active,150,O=c1c2cc(O)ccc2oc2cccc(O)c12
36.7,,,8,C=CC(C)(C)c1cc(O)c2oc3c(O)c4c(cc3c(=O)c2c1O)C=CC(C)(C)O4
142,,,26.8,C=CC(C)(C)c1cc(O)c2oc3c(O)c4occc4cc3c(=O)c2c1O
4.1,,,53,C=CC(C)(C)c1cc(O)c2oc3c(O)c(O)ccc3c(=O)c2c1O
